Laboratory results as given in patent publication US5362480A, “Oral hygiene compositions containing amino sugars as antiplaque agents” (Lever Brothers Company, Division of Conopco, Inc., priority 1992, dated 1994).
In brackets after ≈: the same amount, converted by molar mass. Like-named read-outs stand apart in the source and are kept apart here.

What was measured:
[1] = tested on: Actinomyces strains 12104 and LY7; details: cited from earlier work
[2] = tested on: Clinical plaque strains; details: mouth rinse, five human individuals; cited from earlier work
[3] = Bacterial coaggregation assay (A. naeslundii PK29 with S. sanguis G9B); type: cell-based, Actinomyces naeslundii PK29; Streptococcus sanguis G9B; details: Actinomyces naeslundii
Experimental: (§1) A bacterial coaggregation assay was used to determine the ability of various amino sugars to interfere with lectin-mediated binding among various bacterial species. For instance, many Actinomyces naeslundii strains coaggregate with Streptococcus sanguis as a result of binding between a lectin produced by the A. naeslundii cells and β-galactose-containing structures on the surface of the streptococci. For the present assay, A. naeslundii PK29 and S. sanguis G9B were cultured overnight in a medium containing 2.5% tryptone, 1.5% yeast extract, 0.1% magnesium sulfate, and 1.0% fructose. The cells were then washed twice in a 1.0 mM potassium phosphate buffer (pH=6.8) containing 1.0 mM calcium chloride, 0.1 mM magnesium chloride, and 50.0 mM potassium chloride (buffered KCl), after which they were resuspended in buffered KCl at an optical density (540 nm) of 1.5. The coaggregations were performed by combining 0.5 ml of each bacterial suspension with 0.2 ml of 5.0% bovine serum albumin (BSA) and 0.8 ml of an appropriate concentration of a targeted anti-plaque agent in 3.0 ml capped polystyrene cuvettes. The cuvettes (path length 1 cm) were gently inverted at room temperature, and the optical density (540 nm) was determined as a function of time (2.0 min intervals; 20 min).
(§2) The instrument employed to measure optical density was a variable wavelength spectrophotometer (Gilson Respons® Spectrophotometer, bought from Gilson).
(§3) The activity of a tested compound was expressed as inhibition relative to buffer controls (i.e., % inhibition=[1-change in optical density (inhibitor)]/change in optical density [control])×100.
(§4) The ability of various amino sugars (prepared as described in Examples 1 and 2) to target to β-galactose-specific binding proteins on A. naeslundii and thus to interfere with coaggregation interactions between A. naeslundii and S. sanguis was investigated. Coaggregation of Actinomyces naeslundii PK29 and Streptococcus sanguis G9B was performed as described in the Methods section (Bacterial Coaggregation Assay) above. Inhibition was calculated as 1.0--the change in optical density (540 nm) in the sample containing compound tested/the change in optical density in the coaggregation buffer control.

[4] = tested on: A. naeslundii PK29; assay: Latex bead-bacterial agglutination assay (asialofetuin-coated latex beads); type: cell-based, Actinomyces naeslundii PK29
Experimental: A latex bead agglutination assay was utilized to determine the effects of the amino sugars on lectin-mediated bacterial adherence to glycoprotein-coated surfaces. Latex beads (6.0 micrometer diameter) were prepared by suspending them in a 0.5 mg/ml solution of asialofetuin (a glycoprotein rich in oligosaccharide side chains which terminate in β-galactosyl groups) in 20.0 mM trishydroxyaminomethane buffer (ph=8.2) containing 0.73% glycine, 1.0% sodium chloride, 0.1 mM calcium chloride, and 0.02% sodium azide (TGS buffer). The beads were treated for 30.0 min at 37 degrees C. after which they were washed and resuspended in 0.1% BSA in TGS buffer. A. naeslundii PK29 cells were cultured as described in Bacterial Coaggregation Assay, washed, and resuspended in TGS buffer to an optical density (540 nm) of 1.5. The bacterial suspension (0.1 ml) and the prepared latex beads (1.0 ml) were combined with an appropriate concentration of inhibitor (0.8 ml) in 3.0 ml capped polystyrene cuvettes. The cuvettes were gently inverted at room temperature, and optical density (OD 540nm, 1 cm path length) was monitored at 2.0 min intervals for 20.0 min. The instrument employed was Gilson Response®.
The ability of the amino sugars to inhibit bacterial adhesion was also tested using the latex bead assay described above (Methods section). This assay measures the ability of the test agents to interfere with bacterial adhesion to a glycoprotein-coated solid surface, which is analogous to pellicle coated tooth surface. Agglutination of asialofetuin-coated latex beads by A. naeslundii PK29 performed as described above. Inhibition was calculated as 1.0--the change in optical density (540 nm) in the sample containing the inhibitor/the change in optical density in the coaggregation buffer control.

[5] = tested on: Actinomyces viscosus; details: cited from earlier work
[6] = tested on: Actinomyces naeslundii; details: cited from earlier work
[7] = tested on: Actinomyces naeslundii; assay: Antimicrobial activity determination (MIC); type: cell-based; details: read-out: Minimum Inhibitory Concentration, Actinomyces naeslundii
Experimental: (§5) The antimicrobial activity of the targeted agents was assessed by determining the minimum inhibitory concentration (MIC). Pure cultures of various strains of oral bacterial species as indicated in Table 3 were combined with serial dilutions of the targeted agents in beef heart infusion broth (BHI); starting bacterial concentrations were approximately 1.0×10E6 colony forming units (CFU) per ml. The mixtures were incubated aerobically at 37 degrees C. and the optical density (540 nm, path length 1 cm) of the cultures was measured at 0.0, 24.0 and 48.0 hr using Bausch and Lomb Spec 20 variable wavelength spectrophotometer.
(§6) The amino sugars within the scope of the invention and other compounds were tested for their bacteriostatic effects on the growth of several species of oral bacteria.

[8] = tested on: coaggregation of Actinomyces naeslundii PK29 and Streptococcus sanguis G9B (β-galactose-specific binding proteins on A. naeslundii); assay: Bacterial coaggregation assay (A. naeslundii PK29 with S. sanguis G9B); type: cell-based; details: for inhibition compared to the parent saccharide, lactose: vs lactose
Experimental: as §1, §2, §3, §4

[9] = tested on: Streptococcus sanguis; assay: Antimicrobial activity determination (MIC); type: cell-based; details: read-out: Minimum Inhibitory Concentration, Streptococcus sanguis
Experimental: as §5, §6

[10] = tested on: Streptococcus sobrinus; assay: Antimicrobial activity determination (MIC); type: cell-based, Streptococcus sobrinus 6715; details: read-out: Minimum Inhibitory Concentration, Streptococcus sobrinus
Experimental: as §5, §6

[11] = tested on: Neisseria subflava; assay: Antimicrobial activity determination (MIC); type: cell-based, Neisseria subflava A1078; details: read-out: Minimum Inhibitory Concentration, Neisseria subflava
Experimental: as §5, §6

[12] = tested on: Porphyromonas gingivalis; assay: Antimicrobial activity determination (MIC); type: cell-based, Porphyromonas gingivalis W83; details: read-out: Minimum Inhibitory Concentration, Porphyromonas gingivalis
Experimental: as §5, §6

[13] = tested on: Prevotella intermedius; assay: Antimicrobial activity determination (MIC); type: cell-based, Prevotella intermedius 25611; details: BHI broth, 37 degrees C., aerobic, read-out: Minimum Inhibitory Concentration, Prevotella intermedius
Experimental: as §5, §6

[14] = tested on: Veillonella dispar; assay: Antimicrobial activity determination (MIC); type: cell-based, Veillonella dispar 17745; details: BHI broth, 37 degrees C., aerobic, read-out: Minimum Inhibitory Concentration, Veillonella dispar
Experimental: as §5, §6

[15] = BHI broth, 37 degrees C., aerobic

In the case of `CCO[C@H]1O[C@H](CO)[C@H](O)[C@H](O[C@@H]2O[C@H](CO)[C@H](O)[C@H](O)[C@H]2NC(C)=O)[C@H]1O` [GalNAcβ-3Galα1-O-ethyl], the adherence [1] is given as “blocked adherence” and the plaque inhibitory activity [2] is given as “plaque inhibitory activity”.
`O=C[C@H](O)[C@@H](O)[C@@H](O)[C@H](O)CO` [Galactose, reference compound] showed an inhibition at 2800 µM [3] of 10% and an inhibition at 2800 µM ([4]; Actinomyces naeslundii, PK29) of 17%.
Compound `OC[C@H]1O[C@@H](O[C@H]2[C@H](O)[C@@H](O)C(O)O[C@@H]2CO)[C@H](O)[C@@H](O)[C@H]1O` (stereo partly drawn) [Lactose, reference compound] has an inhibition at 3000 µM [3] of 61%.
In the case of `CCOC1O[C@H](CO)[C@H](O)[C@H](O[C@@H]2O[C@H](CO)[C@H](O)[C@H](O)[C@H]2NC(C)=O)[C@H]1O` (stereo partly drawn) [N-acetyl-galactosamine-β1,3-galactose-O-ethyl], the “inhibition of binding to human erythrocytes” value [5] is given as “inhibitor of binding” and the “inhibition of binding to human erythrocytes” value [6] is given as “inhibitor of binding”.
In the case of `CCCCCCCCCCN[C@@H]1O[C@H](CO)[C@H](O)[C@H](O)[C@H]1O` [N-decyl galactosylamine], the inhibition at 1800 µM ([4]; Actinomyces naeslundii, PK29) is reported as 51% and the “inhibition of agglutination compared to galactose” value ([4]; vs galactose) is reported as “substantially more potent inhibitor”.
With `CCCCCCCCCCNC1O[C@H](CO)[C@@H](O)[C@H](O)[C@H]1O` (stereo partly drawn) [N-decyl glucosylamine] the “inhibition of agglutination of glycoprotein-coated latex beads (in words)” value [4] was “not an effective inhibitor”, the inhibition at 1800 µM ([4]; Actinomyces naeslundii, PK29) was 9% and the MIC [7, 15] was greater than 5000 µg/mL.
`CCCCCCCCCCN[C@@H]1O[C@H](CO)[C@@H](O[C@@H]2O[C@H](CO)[C@H](O)[C@H](O)[C@H]2O)[C@H](O)[C@H]1O` [N-decyl lactosylamine] gave an inhibition at 1000 µM [3] of 11%, an inhibition at 2100 µM [3] of 30% and an inhibition at 3000 µM [3] of 64%. The “inhibition of β-galactose-specific coaggregation (in words)” value [8] was “effective inhibitors”, the “inhibition compared to the parent saccharide, lactose” value [8] was “slighly improved inhibition” and the MIC [7, 15] was 30 µg/mL (≈ 62.3 µM). The MIC [9, 15] was 600 µg/mL (≈ 1250 µM), the MIC [10, 15] was 30 µg/mL (≈ 62.3 µM) and the MIC [11, 15] was 60 µg/mL (≈ 125 µM).
For `CCCCCCCN[C@@H]1O[C@H](CO)[C@H](O)[C@H](O)[C@H]1O` [N-heptyl galactosylamine], the inhibition at 2900 µM [3] was 20%, the “inhibition of β-galactose-specific coaggregation (in words)” value [8] was “effective inhibitors” and the “inhibition of bacterial coaggregation compared to the parent saccharide, galactose” value ([8]; at the concentration tested, vs galactose) was “approximately twice as much”. For the same compound, the MIC [7, 15] was 250 µg/mL (≈ 901 µM), the MIC [9, 15] was greater than 1000 µg/mL and the MIC [10, 15] was 1000 µg/mL (≈ 3610 µM). It also gave an MIC [12, 15] of 125 µg/mL (≈ 451 µM) and an MIC [11, 15] of 125 µg/mL (≈ 451 µM).
`CCCCCCCN[C@@H]1O[C@H](CO)[C@@H](O[C@@H]2O[C@H](CO)[C@H](O)[C@H](O)[C@H]2O)[C@H](O)[C@H]1O` [N-heptyl lactosylamine] showed an inhibition at 1100 µM [3] of 23%, an inhibition at 3000 µM [3] of 63% and an inhibition at 11400 µM [3] of 79%. The “inhibition of β-galactose-specific coaggregation (in words)” value [8] was “effective inhibitors”, the “inhibition compared to the parent saccharide, lactose” value [8] was “slighly improved inhibition” and the MIC [7, 15] was 500 µg/mL (≈ 1140 µM). For the same compound, the MIC [9, 15] was greater than 1000 µg/mL, the MIC [10, 15] was 1000 µg/mL (≈ 2280 µM) and the MIC [12, 15] was 500 µg/mL (≈ 1140 µM). The MIC [11, 15] was 500 µg/mL (≈ 1140 µM).
For `CCCCCCCCNC1O[C@H](CO)[C@@H](O)[C@H](O)[C@H]1O` (stereo partly drawn) [N-octyl glucosylamine, reference compound], the inhibition at 3400 µM [3] was 0% and the “inhibition of β-galactose-specific coaggregation (in words)” value [8] was “lack of inhibition”.
Work on `CCCCCCCCCCCCOS(=O)(=O)[O-].[Na+]` [Sodium dodecyl sulfate, reference compound] yielded an MIC [7] of 8 µg/mL, an MIC [9] of 15 µg/mL and an MIC [10] of 60 µg/mL. It also gave an MIC [12] of 2 µg/mL, an MIC [13] of 16 µg/mL and an MIC [14] of 60 µg/mL. For the same compound, the MIC [11] was 8 µg/mL.
